# Columns and labels:
# [1] = target: T1, recombinant, N-terminally GST-tagged ATAD2 bromodomain amino acids 981-1108 (Homo sapiens, UniProt Q6PL18); assay: TR-FRET assay: disruption of the interaction between ATAD2 and acetylated Histone H4 (Ac-H4) peptide; type: binding; settings: inhibition of ATAD2/Ac-H4 complex formation; 10 nM ATAD2, 50 nM Ac-H4 peptide
# T1 construct: ATAD2 bromodomain amino acids 981-1108; made in house; host or cells: E. coli
# T1 sequence (Q6PL18 981-1108): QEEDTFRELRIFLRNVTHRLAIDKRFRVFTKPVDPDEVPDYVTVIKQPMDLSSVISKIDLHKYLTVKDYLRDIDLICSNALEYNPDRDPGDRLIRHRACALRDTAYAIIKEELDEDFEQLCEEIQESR
# Outline: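 10 nM protein (final) pre-incubated 10 min at 22 °C with compound (0.1 nM-20 μM, 11 points, duplicate), then 50 nM biotinylated Ac-H4 peptide plus anti-GST-XL665/streptavidin-Eu added for 1 h at 22 °C in HEPES pH 7.5 buffer. 665/622 nm emission ratio read; IC50 from 4-parameter fit of normalized inhibition.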
# MCF7 breast cancer cells = assay: Cell proliferation assay (alamarBlue), MCF7; type: cell-based; settings: Homo sapiens, 72 h incubation, GI50 = half-maximal growth inhibition
# Experimental: (§1) The effect of ATAD2 inhibitory compounds on cancer cell proliferation might be measured as below. For example; MCF7 breast cancer cells might be seeded into 96-well microtiter plates at 2000 cells/well in 90 μl cell culture media (RPMI 1640, 10% FCS, 2 mM L-Glutamine, 10 μg/ml human Insulin, […]) and incubated for 24 h at 37° C. and 5% CO2. Note, the culturing conditions might vary from cell line to cell line depending on their standard culturing conditions. Compounds might be then delivered to the microtiter assay plates and, following a 72 h long incubation period at 37° C. and 5% CO2, the viability of the cells might be measured with addition of alamarBlue® (Invitrogen) to the medium in Victor X3 Multilabel Plate Reader (Perkin Elmer).
# (§2) GI50 means half-maximal growth inhibition.
# NCl-H526 lung cancer = assay: Cell proliferation assay (alamarBlue), NCl-H526; type: cell-based; settings: GI50 = half-maximal growth inhibition
# Experimental: as §1, §2
IC50 [1],GI50 (MCF7 breast cancer cells),GI50 (NCl-H526 lung cancer),SMILES
0.301 µM,10.4 µM,10.2 µM,"COc1cc(Cl)c(C(=O)N[C@@H](CO)Cc2ccc(C#N)cc2)cc1-c1ccc(CN[C@H](C)c2ccc(C)cc2)o1 [Example 81, 2-chloro-N-[(2R)-1-(4-cyanophenyl)-3-hydroxypropan-2-yl]-4-methoxy-5-[5-({[(1R)-1-(4-methylphenyl)ethyl]amino}methyl)-2-furyl]benzamide]"
0.166 µM,3.2 µM,2.4 µM,"COc1cc(Cl)c(C(=O)N[C@@H](CN[C@H]2CC[C@@H](N)CC2)Cc2ccc(C#N)cc2)cc1-c1ccc(CN[C@H](C)c2ccc(C)cc2)o1 [Example 86, N-[(2R)-1-[(4-aminocyclohexyl)amino]-3-(4-cyanophenyl)propan-2-yl]-2-chloro-4-methoxy-5-[5-({[(1R)-1-(4-methylphenyl)ethyl]amino}methyl)-2-furyl]benzamide]"
0.367 µM,10.8 µM,19.1 µM,"Cc1ccc([C@@H](C)NCc2ccc(-c3cc(C(=O)N[C@@H](CO)Cc4ccc(C#N)cc4)c(Cl)cc3O)o2)cc1 [Example 90, 2-chloro-N-[(2R)-1-(4-cyanophenyl)-3-hydroxypropan-2-yl]-4-hydroxy-5-[5-({[(1R)-1-(4-methylphenyl)ethyl]amino}methyl)-2-furyl]benzamide]"
